Laboratory results reported in patent publication US4477443A, “Tylosin derivatives, their preparation and pharmaceutical compositions containing them” (Zaidan Hojin Biselbutsu Kagaku Kenkyu Kai (Microbial …, priority 1981, dated 1984).
≈ marks a conversion by molar mass, not a printed value. Like-named read-outs stand apart in the source and are kept apart here.

Columns and labels:
Assay type in all cases: cell-based
E. coli K-12 R-5 = test: antimicrobial activity (MIC), Table I; settings: Escherichia coli, K12R5; E. coli K-12 R-5; read-out: MIC
B. subtilis NRRL B-558 = test: antimicrobial activity (MIC), Table I; settings: Bacillus subtilis, NRRLB558; B. subtilis NRRL B-558; read-out: MIC
Pro. vulgaris OX-19 = test: antimicrobial activity (MIC), Table I; settings: Proteus vulgaris, OX19; Pro. vulgaris OX-19; read-out: MIC
E. coli NIHJ = test: antimicrobial activity (MIC), Table I; settings: Escherichia coli; E. coli NIHJ; read-out: MIC
E. coli K-12 ML 1410 = test: antimicrobial activity (MIC), Table I; settings: Escherichia coli, K12ML1410
Sarcina lutea PCI 1001 = test: antimicrobial activity (MIC), Table I; settings: Micrococcus luteus, PCI1001; Sarcina lutea PCI 1001; read-out: MIC
Staph. aureus MS 9861 = test: antimicrobial activity (MIC), Table I; settings: Staphylococcus aureus, MS9861; Staph. aureus MS 9861; read-out: MIC
Staph. aureus 193 = test: antimicrobial activity (MIC), Table I; settings: Staphylococcus aureus; Staph. aureus 193; read-out: MIC
Kleb. pneumoniae PCI 602 = test: antimicrobial activity (MIC), Table I; settings: Klebsiella pneumoniae, PCI602; Kleb. pneumoniae PCI 602; read-out: MIC
Staph. aureus 209 P = test: antimicrobial activity (MIC), Table I; settings: Staphylococcus aureus; Staph. aureus 209 P; read-out: MIC
[1] = tested on: Shigella dysenteriae JS 11910; test: antimicrobial activity (MIC), Table I; settings: JS11910
E. coli K-12 = test: antimicrobial activity (MIC), Table I; settings: Escherichia coli, K12; E. coli K-12; read-out: MIC
Sal. enteritidis 1891 = test: antimicrobial activity (MIC), Table I; settings: Salmonella enterica; Sal. enteritidis 1891; read-out: MIC
Coryn. bovis 1810 = test: antimicrobial activity (MIC), Table I; settings: Corynebacterium bovis; Coryn. bovis 1810; read-out: MIC
Staph. aureus KC-11 = test: antimicrobial activity (MIC), Table II; settings: Staphylococcus aureus, KC11; Staph. aureus KC-11; read-out: MIC
B. subtilis ATCC 6633 = test: antimicrobial activity (MIC), Table II; settings: Bacillus subtilis, ATCC6633; B. subtilis ATCC 6633; read-out: MIC
B. cereus = test: antimicrobial activity (MIC), Table II; settings: Bacillus cereus; B. cereus; read-out: MIC
Staph. aureus 226 = test: antimicrobial activity (MIC), Table II; settings: Staphylococcus aureus
Staph. aureus ATCC 6538P = test: antimicrobial activity (MIC), Table II; settings: Staphylococcus aureus, ATCC6538P
[2] = tested on: Staph. epidermidis IID 866; test: antimicrobial activity (MIC), Table II; settings: Staphylococcus epidermidis, IID866
[3] = E. coli K-12 ML 1410, read-out: MIC
[4] = Staph. aureus 226, read-out: MIC
[5] = Staph. aureus ATCC 6538P, read-out: MIC

SMILES | MIC (E. coli K-12 R-5) [µg/mL] | MIC (B. subtilis NRRL B-558) [µg/mL] | MIC (Pro. vulgaris OX-19) [µg/mL] | MIC (E. coli NIHJ) [µg/mL] | MIC (Sarcina lutea PCI 1001) [µg/mL] | MIC (Staph. aureus MS 9861) [µg/mL] | MIC (Staph. aureus 193) [µg/mL] | MIC (Kleb. pneumoniae PCI 602) [µg/mL] | MIC (Staph. aureus 209 P) [µg/mL] | MIC [1] [µg/mL] | MIC (E. coli K-12) [µg/mL] | MIC (Sal. enteritidis 1891) [µg/mL] | MIC (Coryn. bovis 1810) [µg/mL] | MIC (Staph. aureus KC-11) [µg/mL] | MIC (B. subtilis ATCC 6633) [µg/mL] | MIC (B. cereus) [µg/mL] | MIC (Staph. aureus 226; [4]) [µg/mL] | MIC (Staph. aureus ATCC 6538P; [5]) [µg/mL] | MIC [2] [µg/mL] | other results
CCC1OC(=O)CC(O)C(C)C(OC2OC(C)C(O)C(N(C)C)C2O)C(CC=O)CC(C)C(=O)C=CC(C)=CC1CN(C)C (stereo not drawn) [Example 4, 23-deoxy-23-dimethylaminomycaminosyl tylonolide] | 1.56 (≈ 2.5 µM) | 0.78 (≈ 1.25 µM) | 1.56 (≈ 2.5 µM) | 0.78 (≈ 1.25 µM) | < 0.2 | 1.56 (≈ 2.5 µM) | 0.39 (≈ 0.624 µM) | 0.78 (≈ 1.25 µM) | 0.2 (≈ 0.32 µM) | 0.39 (≈ 0.624 µM) | 1.56 (≈ 2.5 µM) | 1.56 (≈ 2.5 µM) | 0.78 (≈ 1.25 µM) |  |  |  |  |  |  | MIC (E. coli K-12 ML 1410; [3]): 1.56 µg/mL (≈ 2.5 µM)
CCC1OC(=O)CC(O)C(C)C(OC2OC(C)CC(N(C)C)C2O)C(CC=O)CC(C)C(=O)C=CC(C)=CC1CN1CCCC1 (stereo not drawn) [Example 16, 23,4'-dideoxy-23-pyrrolidinomycaminosyl tylonolide] | 1.56 (≈ 2.46 µM) | 0.78 (≈ 1.23 µM) | 1.56 (≈ 2.46 µM) | 1.56 (≈ 2.46 µM) | < 0.2 | 3.12 (≈ 4.91 µM) | 1.56 (≈ 2.46 µM) | 0.78 (≈ 1.23 µM) | 0.39 (≈ 0.614 µM) | < 0.2 | 3.12 (≈ 4.91 µM) | 0.39 (≈ 0.614 µM) | 0.39 (≈ 0.614 µM) |  |  |  |  |  |  | MIC (E. coli K-12 ML 1410): 3.12 µg/mL (≈ 4.91 µM)
CCC1OC(=O)CC(O)C(C)C(OC2OC(C)CC(N(C)C)C2O)C(CC=O)CC(C)C(=O)C=CC(C)=CC1CN1CCCCC1 (stereo not drawn) [Example 17, 23,4'-dideoxy-23-piperidinomycaminosyl tylonolide] | 1.56 (≈ 2.4 µM) | 0.39 (≈ 0.601 µM) | 0.78 (≈ 1.2 µM) | 0.78 (≈ 1.2 µM) | < 0.2 | 1.56 (≈ 2.4 µM) | 0.78 (≈ 1.2 µM) | 1.56 (≈ 2.4 µM) | 0.39 (≈ 0.601 µM) | < 0.2 | 3.12 (≈ 4.81 µM) | 0.39 (≈ 0.601 µM) | < 0.2 |  |  |  |  |  |  | MIC (E. coli K-12 ML 1410; [3]): 0.78 µg/mL (≈ 1.2 µM)
CCC1OC(=O)CC(O)C(C)C(OC2OC(C)CC(N(C)C)C2O)C(CC=O)CC(C)C(=O)C=CC(C)=CC1CNC(C)C (stereo not drawn) [Example 21, 23,4'-dideoxy-23-isopropylaminomycaminosyl tylonolide] |  |  |  |  |  |  |  |  |  |  |  |  |  | 0.78 (≈ 1.25 µM) | 0.78 (≈ 1.25 µM) | 0.39 (≈ 0.626 µM) | 0.78 (≈ 1.25 µM) | 0.78 (≈ 1.25 µM) | 0.78 (≈ 1.25 µM) | 
CCC1OC(=O)CC(O)C(C)C(OC2OC(C)CC(N(C)C)C2O)C(CC=O)CC(C)C(=O)C=CC(C)=CC1CNC(C)(C)C (stereo not drawn) [Example 22, 23,4'-dideoxy-23-(t-butylamino)mycaminosyl tylonolide] |  |  |  |  |  |  |  |  |  |  |  |  |  | 0.78 (≈ 1.22 µM) | 0.78 (≈ 1.22 µM) | 0.39 (≈ 0.612 µM) | 0.78 (≈ 1.22 µM) | 0.78 (≈ 1.22 µM) | 0.78 (≈ 1.22 µM) | 
CCC1OC(=O)CC(O)C(C)C(OC2OC(C)CC(N(C)C)C2O)C(CC=O)CC(C)C(=O)C=CC(C)=CC1CNCC(C)(C)C (stereo not drawn) [Example 23, 23,4'-dideoxy-23-neopentylaminocaminosyl tylonolide] |  |  |  |  |  |  |  |  |  |  |  |  |  | 0.78 (≈ 1.2 µM) | 1.56 (≈ 2.4 µM) | 0.78 (≈ 1.2 µM) | 0.78 (≈ 1.2 µM) | 0.78 (≈ 1.2 µM) | 0.78 (≈ 1.2 µM) | 
CCC1OC(=O)CC(O)C(C)C(OC2OC(C)C(O)C(N(C)C)C2O)C(CC=O)CC(C)C(=O)C=CC(C)=CC1CN1CCCCCC1 (stereo not drawn) [Example 24, 23-deoxy-23-hexamethyleneiminomycaminosyl tylonolide] |  |  |  |  |  |  |  |  |  |  |  |  |  | 0.78 (≈ 1.15 µM) | 0.78 (≈ 1.15 µM) | 0.39 (≈ 0.574 µM) |  |  | 0.39 (≈ 0.574 µM) | MIC (Staph. aureus 226; 226): ≤ 0.2 µg/mL; MIC (Staph. aureus ATCC 6538P): 0.39 µg/mL (≈ 0.574 µM)
CCC(=O)N(CC)CC1C=C(C)C=CC(=O)C(C)CC(CC=O)C(OC2OC(C)C(O)C(N(C)C)C2O)C(C)C(O)CC(=O)OC1CC (stereo not drawn) [Example 42, 23-deoxy-23-N-ethylpropionylaminomycaminosyl tylonolide] |  |  |  |  |  |  |  |  |  |  |  |  |  | 1.56 (≈ 2.29 µM) | 0.78 (≈ 1.15 µM) | 0.39 (≈ 0.573 µM) | 0.78 (≈ 1.15 µM) | 0.78 (≈ 1.15 µM) | 0.78 (≈ 1.15 µM) | 
